Test system: histidine decarboxylase (HDC)
Experiment: Number of HDC immunoreactive neurons in the tuberomammillary nuclei (immunohistochemistry)
Type: in vivo, cat
Method: […] animals were used for the immunohistochemical study to label the histamine synthesizing enzyme: the HDC. This study was performed on the same four groups of cats used for the behavioral investigation (cats 10–22). These lesioned animals (left UVN) were all killed 40 days after vestibular lesion. A supplementary group of intact animals (n = 4: cats 23–26) was used as a negative control group without vestibular lesion.
Cats were deeply anesthetized with ketamine dihydrochloride (20 mg/kg, i.m., Rhône Poulenc Mérieux) and perfused under isoflurane intubation (2%), through the ascending aorta, with 1 L of normal saline solution (0.9%) containing 0.1% heparine, and thereafter with 2 L of ice-cold 0.1 M phosphate buffer (PB, pH 7.4) including 4% paraformaldehyde and 0.2% picric acid.
After removal from the skull, the brain was cut into several blocks and post-fixed overnight at 4°C in the same solution. The blocks were then rinsed and cryoprotected by increasing concentrations (10, 20, and 30%) of sucrose solution in 0.1 M PB for 72 h at 4°C. Blocks containing the TMN were rapidly frozen with CO2 gas, and coronal sections 20 μm thick were cut in a cryostat (Leica, Rueil-Malmaison, France).
Free-floating sections were first incubated three times for 5 min in PBS (phosphate buffer saline 0.1 M), then for 1 h in 10% BSA, and 0.25% Triton X-100. Thereafter, sections were incubated under continuous agitation 24 h at 4°C with a Guinea pig polyclonal anti-HDC antiserum (1:1,000 in PBS containing 2% BSA and 0.25% Triton; Fisher scientific). After several rinses (3 × 5 min in PBS with 2% BSA and 3 × 5 min in PBS with 5% BSA) sections were incubated for 1 h, respectively, in biotinylated rabbit anti-guinea pig IgG (1:200 in PBS containing 2% BSA; from Vector Laboratories, Burlingame, CA). […]
The tuberomammillary nuclei (TMN) of the posterior hypothalamus, the sole structure in the brain containing histaminergic neurons, were identified using Berman's stereotaxic atlas ([38]). […] Serial sections in the TMN of each animal were analyzed, five sections at each of the five rostrocaudal levels examined (A12, A11, A10.2, A9.5, and A8.3) being quantified. The number of HDC immunoreactive neurons was quantified by means of a computer-assisted image analysis (DMLB microscope: Leica Microsystems, Wetzlar, Germany) equipped with a DXM 1200 Nikon high-resolution digital camera (1,024 × 1,024 pixels; Nikon, Tokyo, Japan) interfaced to a PC computer employing image software for capturing and processing the images (Lucia G, Nikon, Champigny-sur-Marne, France). Quantification of the immunolabeled neurons was performed via a gray-level method by adjusting a threshold brightness value, and only cells labeled with a gray value above this threshold were taken into account. Reproducibility was assessed by comparing the same data analyzed independently by two researchers blind to the animals' groups. The specific immunolabeling was quantified in each section as the number of labeled neurons, and was automatically computed and evaluated thereafter as the mean (± SEM) for each side, each cat, and each subgroup of cats. To eliminate quantification problems due to potentially asymmetric slides, data were collected from symmetrical slides only, and symmetry was assessed on the basis of the number of cells stained with cresyl violet on each side. […]

[1] = UVN D40, betahistine 2 mg/kg, p < 0.0001

CNCCc1ccccn1 [Betahistine, betahistine]
Number of HDC immunoreactive neurons, ipsilateral TMN (UVN D40, betahistine 0.2 mg/kg without selegiline, UVN untreated 151.78 ± 3.29): 151.3 ± 1.51
Number of HDC immunoreactive neurons, contralateral TMN (UVN D40, betahistine 0.2 mg/kg without selegiline, UVN untreated 152.4 ± 3.63): 151.1 ± 1.63
Number of HDC immunoreactive neurons, contralateral TMN [1]: 191.68 ± 2.04
Number of HDC immunoreactive neurons, ipsilateral TMN [1]: 190.85 ± 1.58
Number of HDC immunopositive neurons on both sides, on average (lesion and betahistine 2 mg/kg, 40 days post-lesion, compared to UVN untreated cats as worded): 210%
